ChEMBL document CHEMBL1152643, “Tedanol: a potent anti-inflammatory ent-pimarane diterpene from the Caribbean Sponge Tedania ignis” (Bioorg Med Chem, 2009)
Activity calls are given as the source filed them. The calls are words filed in the database; no cut-off is given here.

Columns and labels:
Type in all cases: functional, organism-based
[1] = test system: Mus musculus; assay: Antiinflammatory activity against carrageenan-induced inflammation in CD1 mouse assessed as inhibition of COX1 activity in second edema phase at 1 mg/kg, ip after 2 to 4 hrs by Western blot; parameters: dose 1 mg/kg
[2] = test system: Mus musculus; assay: Antiinflammatory activity against carrageenan-induced inflammation in CD1 mouse assessed as inhibition of iNOS expression at 1 mg/kg, ip after 48 hrs by Western blot; parameters: dose 1 mg/kg
[3] = test system: Mus musculus; assay: Antiinflammatory activity in ip dosed CD1 mouse assessed as inhibition of carrageenan-induced paw edema by hydroplethismometer
[4] = test system: Mus musculus; assay: Antiinflammatory activity against carrageenan-induced inflammation in CD1 mouse assessed as inhibition of iNOS expression at 1 mg/kg, ip after 2 hrs by Western blot; parameters: dose 1 mg/kg
[5] = test system: Mus musculus; assay: Antiinflammatory activity against carrageenan-induced inflammation in CD1 mouse assessed as inhibition of MPO activity at 1 mg/kg, ip after 4 hrs; parameters: dose 1 mg/kg
[6] = test system: Mus musculus; assay: Antiinflammatory activity against carrageenan-induced inflammation in CD1 mouse assessed as inhibition of COX1 activity in second edema phase at 1 mg/kg, ip after 24 to 72 hrs by Western blot; parameters: dose 1 mg/kg
[7] = test system: Mus musculus; assay: Antiinflammatory activity against carrageenan-induced inflammation in CD1 mouse assessed as inhibition of COX2 activity in early edema phase at 1 mg/kg, ip after 2 to 4 hrs by Western blot; parameters: dose 1 mg/kg
[8] = test system: Mus musculus; assay: Antiinflammatory activity against carrageenan-induced inflammation in CD1 mouse assessed as inhibition of COX2 activity in second edema phase at 1 mg/kg, ip after 24 to 72 hrs by Western blot; parameters: dose 1 mg/kg
[9] = test system: Mus musculus; assay: Antiinflammatory activity against carrageenan-induced inflammation in CD1 mouse assessed as inhibition of MPO activity at 1 mg/kg, ip after 48 hrs; parameters: dose 1 mg/kg

CC1(C)[C@H](Br)CC[C@@]2(C)C3=CC[C@](C)([C@@H](Br)COS(=O)(=O)O)C[C@H]3[C@H](O)C[C@H]12
Activity [1]: inactive | Activity [2]: Active | Activity [3]: Dose-dependent effect | Activity [4]: Active | Activity [5]: Active | Activity [6]: Active | Activity [7]: Active | Activity [8]: Active | Activity [9]: Active
